Experimental data taken from patent publication US7087552B2, “Modification of floral scent in flowering plants” (Ball Horticultural Company, priority 1999, dated 2006).

How the values were obtained:
Cut Snapdragon Flowers [1] = experiment: Headspace GC-MS of floral scent emission from cut snapdragon flowers placed in treatment solutions; format: in vivo; conditions: for Percentage amount of total floral scent emitted compared to the 24-hour period prior to harvest: 5% (w/v) sucrose and/or 0.1 mg/ml benzoic acid
Procedure: Volatiles emitted from snapdragon flowers were determined by headspace analysis, as described previously (Raguso and […], 1995, Plant Systematics and Evolution 194:55-67). […] (light /dark) temperature cycle. Flowers attached to the plant were enclosed in a polyvinylacetate bag (Reynolds, Inc.) and purified air was pumped over the flower at a flow rate of 250 ml/minute. […] Ionization energy was set at 70 eV. Column temperature programming was: 50° C. for 1 minute, then heated to 240° C. at a rate of 10°/minute. The MS was scanned from 41 to 400 AMU (atomic mass units). Simultaneous collections of ambient volatiles were used as controls. Components were first identified through a computer database containing several thousand mass spectra and confirmed by comparison of retention times and mass spectra of authentic standards. Headspace collection of greenhouse-grown, inflorescence-bearing snapdragons (Maryland True Pink, PanAmerican Seed Company, West Chicago, Ill.) was carried out for 24 hours. The snapdragon inflorescence-bearing stems for this experiment were carefully chosen to have a similar number of same-aged flowers. […] The sucrose level chosen was based upon the conclusions reached by Ichimura and Hisamatsu (1999, Journal for the Japanese Society for Horticultural Science, 68:61-66) that 5% (w/v) sucrose was the optimum sucrose level for maximum vase life of cut snapdragon flowers.

IS10a = conditions: tobacco cells exposed to 200–400 mM; cited from earlier work
[2] = test system: intact root systems of soybean seedlings; conditions: intact root systems exposed; cited from earlier work
[3] = test system: hypocotyl cells in light-grown, intact Nicotiana plumbaginifolia seedlings; conditions: 1 mM (approximately 0.125 mg/ml); cited from earlier work
Potted Snapdragon Plant = experiment: Spray application to an intact potted snapdragon plant, headspace floral scent emission
Procedure: In this experiment, a flowering snapdragon plant was selected and the headspace collected for a single 24-hour period. After this time, the inflorescence-bearing stem was sprayed to the point of runoff with a solution of 1 mg/ml benzoic acid. […] The flowers were allowed to dry and the headspace collected for the next 24 hours. […] However, during this 24-hour period after spray application of benzoic acid, several interesting observations were made.

[4] = test system: lisianthus inflorescence-bearing stems; conditions: lisianthus (Eustoma), in vivo, 0.1 mg/ml
Procedure: (§1) To determine whether other floral scent precursors were taken up through the cut end of stems, and whether these compounds were transported in flowers other than snapdragon, the following experiment was performed.

[5] = test system: snapdragon inflorescence-bearing stems; conditions: in vivo, 0.1 mg/ml
Procedure: as §1

Snapdragon Petals [6] = experiment: Conversion of 14C-labelled floral scent precursor to 14C-methylbenzoate in situ by excised snapdragon petal lobes (headspace, scintillation counting); conditions: for nanocuries of 14C-methylbenzoate from 14C-phenylalanine: 220 nCi applied
Procedure: Ten lower lobes of snapdragon flowers (variety Maryland True Pink, PanAmerican Seed Company, West Chicago, Ill.) were excised from the rest of the flower. Two microliters of ^14C-benzoic acid (500 nanocuries, or nCi) were pipetted onto the cut edge of the lower lobes. At this time, the lobes were allowed to sit for 10 minutes to permit uptake of the radiolabeled benzoic acid. The lobes were placed cut edge down on wet filter paper and the headspace collected over the course of the next four hours. The columns which trapped the volatiles were changed at 30, 60, 120 and 240 minutes after the start of incubation and eluted with 3 mls of hexane. The eluate (1.5 mls) was then analyzed in a liquid scintillation counter for the presence and amount of ^14C-methylbenzoate. The identity of ^14C-methylbenzoate was verified by its retention time on a thin-layer chromatography plate. As can be observed below in Table 2a, emission of ^14C-methylbenzoate was first detected within one hour after the start of the incubation period. […] This increase was even more dramatic over the next 2 hours as the amount of methylbenzoate emissions increased over 5-fold (compared to the first 2-hour collections period).
In additional experiments (see Table 2b below), an essentially identical radiolabeled experiment was performed in which ^14C-phenylalanine (220 nCi) was substituted for ^14C-benzoic acid as the radiolabeled floral scent precursor. As was observed previously with ^14C-benzoic acid, the ^14C-phenylalanine was rapidly converted to ^14C-methylbenzoate. Within just 30 minutes after the start of the incubation period, ^14C-methylbenzoate was detected. The amount of ^14C-methylbenzoate increased rapidly during the following three successive collection periods, respectively, (the rate increasing during each successive period).

Snapdragon Petals [7] = experiment: as above; conditions: Time 240 min; 220 nCi applied
spotted cucumber beetle = conditions: in vivo; cited from earlier work
H. lineata moths = conditions: in vivo; cited from earlier work
Petunia Cuttings = experiment: Headspace GC-MS of methylbenzoate emission from Mitchell petunia cuttings; format: in vivo; conditions: 5% (w/v) sucrose with or without 0.1 mg/ml benzoic acid
Procedure: The petunia variety called ‘Mitchell’ is an older, non-commercial (i.e., research use only) cultivar (generally available from academic research institutions) that was previously known to emit floral scent, especially during the evening hours. […] With this identification of floral scent in hand, the uptake experiments carried out in Example 2 on cut snapdragon stems were repeated with inflorescence-bearing Mitchell petunia cuttings.
Headspace collection was performed on two intact flowers for a 24-hour period prior to harvest to measure the amount of methylbenzoate emitted. This methylbenzoate emission was measured by GC-MS and these values set at 100%. The two inflorescence-bearing stems were harvested and immediately were placed into a vessel containing 5% (w/v) sucrose or a vessel containing 5% (w/v) sucrose supplemented with 0.1 mg/ml benzoic acid. Headspace collection was carried out as described in Example 2 on the cuttings for five 24-hour periods after harvesting. During the fifth 24-hour period, the flowers on both cuttings eventually senesced and collapsed.

Cut Snapdragon Flowers [8] = experiment: Floral scent emission of cut snapdragon flowers after 48 hours at 4° C. in darkness; format: in vivo; conditions: collected for 5 days at ambient temperature in the light after 48 hours at 4° C. in darkness; 5% (w/v) sucrose with or without 0.1 mg/ml benzoic acid
Procedure: Inflorescence-bearing snapdragon stems were harvested and incubated in water for 48 hours at 4° C. in darkness (to simulate post-harvest conditions at a commercial grower's facility and during shipping). […] The floral scent emission from the flowers was then collected for 5 days, and the total emission compared between the various treatments.

[9] = Post-Spray 24 hours, 1 mg/ml sprayed to runoff

O=C(O)c1ccccc1 [BA, benzoic acid]
Methylbenzoate emitted, percentage of amount emitted during the 24-hour period prior to harvest (Cut Snapdragon Flowers [1]; Day 1 after harvest): 84% | Myrcene emitted, percentage of amount emitted during the 24-hour period prior to harvest (Cut Snapdragon Flowers [1]; Day 1 after harvest): 158% | Ocimene emitted, percentage of amount emitted during the 24-hour period prior to harvest (Cut Snapdragon Flowers [1]; Day 1 after harvest): 139% | Percentage amount of total floral scent emitted compared to the 24-hour period prior to harvest (Cut Snapdragon Flowers [1]; Day 1 after harvest): 120^ % | Methylbenzoate emitted, percentage of amount emitted during the 24-hour period prior to harvest (Cut Snapdragon Flowers [1]; Day 2 after harvest): 91% | Myrcene emitted, percentage of amount emitted during the 24-hour period prior to harvest (Cut Snapdragon Flowers [1]; Day 2 after harvest): 142% | Ocimene emitted, percentage of amount emitted during the 24-hour period prior to harvest (Cut Snapdragon Flowers [1]; Day 2 after harvest): 122% | Percentage amount of total floral scent emitted compared to the 24-hour period prior to harvest (Cut Snapdragon Flowers [1]; Day 2 after harvest): 114% | Methylbenzoate emitted, percentage of amount emitted during the 24-hour period prior to harvest (Cut Snapdragon Flowers [1]; Day 3 after harvest): 8% | Myrcene emitted, percentage of amount emitted during the 24-hour period prior to harvest (Cut Snapdragon Flowers [1]; Day 3 after harvest): 23% | Ocimene emitted, percentage of amount emitted during the 24-hour period prior to harvest (Cut Snapdragon Flowers [1]; Day 3 after harvest): 20% | Percentage amount of total floral scent emitted compared to the 24-hour period prior to harvest (Cut Snapdragon Flowers [1]; Day 3 after harvest): 15% | Methylbenzoate emitted, percentage of amount emitted during the 24-hour period prior to harvest (Cut Snapdragon Flowers [1]; Day 4 after harvest): 4% | Myrcene emitted, percentage of amount emitted during the 24-hour period prior to harvest (Cut Snapdragon Flowers [1]; Day 4 after harvest): 26% | Ocimene emitted, percentage of amount emitted during the 24-hour period prior to harvest (Cut Snapdragon Flowers [1]; Day 4 after harvest): 18% | Percentage amount of total floral scent emitted compared to the 24-hour period prior to harvest (Cut Snapdragon Flowers [1]; Day 4 after harvest): 16% | Methylbenzoate emitted, percentage of amount emitted during the 24-hour period prior to harvest (Cut Snapdragon Flowers [1]; Day 5 after harvest): 3% | Myrcene emitted, percentage of amount emitted during the 24-hour period prior to harvest (Cut Snapdragon Flowers [1]; Day 5 after harvest): 18% | Ocimene emitted, percentage of amount emitted during the 24-hour period prior to harvest (Cut Snapdragon Flowers [1]; Day 5 after harvest): 18% | Percentage amount of total floral scent emitted compared to the 24-hour period prior to harvest (Cut Snapdragon Flowers [1]; Day 5 after harvest): 12% | transcription of IS10a (IS10a): induce the transcription | electrolyte leakage [2]: rapid increase in electrolyte leakage | membrane potential [3]: rapid and weak hyperpolarization | phytotoxicity (Potted Snapdragon Plant; 1 mg/ml spray, after 24 hours): evidence of phytotoxicity | Methylbenzoate emitted, percentage of amount emitted during the 24-hour period prior to spraying (Potted Snapdragon Plant; [9]): 152% | Myrcene emitted, percentage of amount emitted during the 24-hour period prior to spraying (Potted Snapdragon Plant; [9]): 52% | Ocimene emitted, percentage of amount emitted during the 24-hour period prior to spraying (Potted Snapdragon Plant; [9]): 58% | Total floral scent emitted, percentage of amount emitted during the 24-hour period prior to spraying (Potted Snapdragon Plant; [9]): 98% | contribution of the two monoterpenes to the overall floral scent (Potted Snapdragon Plant; after spraying 1 mg/ml (57% prior to spraying)): 33%

O=C(O)c1ccccc1O [salicylic acid]
time of exposure until leaf necrosis was observed [4]: > 5 days | time after exposure at which leaf necrosis was first noticeable [5]: ≤ 2 days

^14C-phenylalanine
nanocuries of 14C-methylbenzoate from 14C-phenylalanine (Snapdragon Petals [6]; Time 0 min): 0.295 nCi | nanocuries of 14C-methylbenzoate from 14C-phenylalanine (Snapdragon Petals [6]; Time 30 min): 0.983 nCi | nanocuries of 14C-methylbenzoate from 14C-phenylalanine (Snapdragon Petals [6]; Time 60 min): 1.874 nCi | nanocuries of 14C-methylbenzoate from 14C-phenylalanine (Snapdragon Petals [6]; Time 120 min): 5.635 nCi | nanocuries of 14C-methylbenzoate from 14C-phenylalanine (Snapdragon Petals [7]): 25.387 nCi

^14C-benzoic acid
nanocuries of 14C-methylbenzoate from 14C-benzoic acid (Snapdragon Petals [6]; Time 0 min, 500 nCi applied to ten lower lobes): 0.030 nCi | nanocuries of 14C-methylbenzoate from 14C-benzoic acid (Snapdragon Petals [6]; Time 30 min, 500 nCi applied): 0.036 nCi | nanocuries of 14C-methylbenzoate from 14C-benzoic acid (Snapdragon Petals [6]; Time 60 min, 500 nCi applied): 0.354 nCi | nanocuries of 14C-methylbenzoate from 14C-benzoic acid (Snapdragon Petals [6]; Time 120 min, 500 nCi applied): 2.544 nCi | nanocuries of 14C-methylbenzoate from 14C-benzoic acid (Snapdragon Petals [6]; Time 240 min, 500 nCi applied): 13.226 nCi

O=C(O)C=Cc1ccccc1 [cinnamic acid]
electrolyte leakage [2]: rapid increase in electrolyte leakage

O=CC=Cc1ccccc1 [cinnamaldehyde]
attraction of the beetle (spotted cucumber beetle): attracted

COC(=O)c1ccccc1 [methylbenzoate]
EAG response (H. lineata moths): especially strong

OC[C@H]1O[C@@](CO)(O[C@H]2O[C@H](CO)[C@@H](O)[C@H](O)[C@H]2O)[C@@H](O)[C@@H]1O [Sucrose, sucrose, reference compound]
Methylbenzoate emitted, percentage of amount emitted during the 24-hour period prior to harvest (Cut Snapdragon Flowers [1]; Day 1 after harvest): 78% | Myrcene emitted, percentage of amount emitted during the 24-hour period prior to harvest (Cut Snapdragon Flowers [1]; Day 1 after harvest): 78% | Ocimene emitted, percentage of amount emitted during the 24-hour period prior to harvest (Cut Snapdragon Flowers [1]; Day 1 after harvest): 88% | Percentage amount of total floral scent emitted compared to the 24-hour period prior to harvest (Cut Snapdragon Flowers [1]; Day 1 after harvest): 85^ % | Methylbenzoate emitted, percentage of amount emitted during the 24-hour period prior to harvest (Cut Snapdragon Flowers [1]; Day 2 after harvest): 30% | Myrcene emitted, percentage of amount emitted during the 24-hour period prior to harvest (Cut Snapdragon Flowers [1]; Day 2 after harvest): 55% | Ocimene emitted, percentage of amount emitted during the 24-hour period prior to harvest (Cut Snapdragon Flowers [1]; Day 2 after harvest): 58% | Percentage amount of total floral scent emitted compared to the 24-hour period prior to harvest (Cut Snapdragon Flowers [1]; Day 2 after harvest): 48% | Percentage amount of methylbenzoate emitted compared to the 24-hour period prior to harvest (Petunia Cuttings; Day 1 after harvest): 62^2% | Percentage amount of methylbenzoate emitted compared to the 24-hour period prior to harvest (Petunia Cuttings; Day 2 after harvest): 76% | Percentage amount of methylbenzoate emitted compared to the 24-hour period prior to harvest (Petunia Cuttings; Day 3 after harvest): 48% | Percentage amount of methylbenzoate emitted compared to the 24-hour period prior to harvest (Petunia Cuttings; Day 4 after harvest): 33% | Percentage amount of methylbenzoate emitted compared to the 24-hour period prior to harvest (Petunia Cuttings; Day 5 after harvest (flowers senesced and collapsed)): 23% | Total Emission (Cut Snapdragon Flowers [8]): 30^1 Units of total floral scent

OCC=Cc1ccccc1 [cinnamyl alcohol]
attraction of the beetle (spotted cucumber beetle): attracted
